From patent US5464754A, “Assay and substrate for arachidonoyl-specific phospholipase A2” (The Regents of the University of California, priority 1993, dated 1995)

Tests used:
[1] = tested on: cPLA enzyme; test: Sensitivity of cPLA enzyme to thiol-sensitive reagents; format: biochemical, human; details: in the presence of DTNB (Ellman's reagent)
Method: The sPLA enzymes are very stable, containing 7 disulfide bonds. […] In contrast, cPLA is an intracellular enzyme and assays and purifications are often run in the presence of reduced thiols, such as 2-mercaptoethanol or dithiothreitol (Kramer et al., supra; Clark, J. D., et al., supra).
After an incubation period, the enzyme/substrate reaction is quenched by the addition of a quenching reagent and a thiol-sensitive reagent. As used herein, the term "quenching reagent" refers to any compound capable of stopping the enzymatic activity of phospholipase A2 enzyme. Suitable quenching reagents are Ca^2+ chelators such as ethylene glycol bis(oxyethylenenitrilo) tetraacetic acid (EGTA) and the like, or high concentrations of a detergent such as 30 mM Triton X-100. The thiol-sensitive reagent can be any reagent capable of releasing a chromophore such as DTNB or 4,4'-dithiodipyridine (DTP). DTNB is a preferred thiol-sensitive reagent because its chromophore can be detected at […], which is available to most microtiterplate readers.

[2] = tested on: cPLA2 (purified, recombinant human); test: Microtiterplate assay for cPLA2 using thioPC substrate; format: biochemical
Method: The enzyme activity of CPLA2 was assayed using a ThioPC/Triton X-100 substrate solution. An appropriate volume of ThioPC in chloroform solution was evaporated to dryness under a stream of N2. Triton X-100 (8 mM) in 2× assay buffer (160 mM HEPES, pH 7.4, 300 mM NaCl, 20 mM CaC2, 2 mg/ml BSA) was added to the dried lipid in one-half the desired final volume to give a 2-fold concentrated substrate solution. This solution was bath sonicated 1 min to loosen dried ThioPC from the walls of the vial and then probe sonicated On ice, 20 sec on, 20 sec off for 3 min. The solution was then warmed to 40° C. and warm glycerol equivalent to 30% of the final volume was added. The solution was then brought to the desired final volume with deionized H2 O. The final assay contained 2 mM ThioPC, 4 mM Triton! X-100 and 30% glycerol in 80 mM HEPES, pH 7.4, 150 mM NaCl, 10 mM CaCl2 and 1 mg/ml BSA.
The substrate was then aliquotted, in 200 μl increments, into the wells of a 96-well plate and equilibrated for 5 min at 37° C. To initiate the reaction, 500 ng cPLA2 (purified, recombinant human), in a 5 μl volume of 1× assay buffer, was added to the wells, the plate was shaken 20 seconds on high to mix, and then incubated for 60 min at 37° C. […]
After 60 min, 10 μl of a 25 mM DTNB/475 mM EGTA mixture was added to all substrate containing wells to quench the reaction and initiate the color development. […] After adding the DTNB/EGTA, the plate was once again shaken 20 sec on high and allowed to incubate for an additional 3 min to give the DTNB chromophore time to fully develop prior to reading the plate. The absorbance was measured using a dual wavelength option (405 nm -620 nm) to correct for light scattering. […] The average absorbance of the blanks was subtracted from that of the enzyme containing wells to correct for the absorbance due to the substrate, DTNB, and EGTA. The difference in absorbance was used to calculate enzyme activity. […] Specific activity was calculated using ε405 for DTNB of 12,800 M^- cm^-1 (Yu et al supra) and a path length of 0.47 cm for 215 μl final total volume. […]

[3] = tested on: cPLA enzyme; test: Effect of solvent and diluent components on cPLA enzyme activity; format: biochemical, human
Method: The substrate diluent generally comprises any suitable assay buffer system, such as HEPES, Tris-HCL, Tris-maleate, glycine, or the like. […] A suitable diluent comprises about 25% -50% glycerol, and preferably about 30% glycerol.
The thiosubstrate diluent also comprises an amount of detergent sufficient to solubilize! the substrate. One suitable detergent is Triton-X 100. Triton-X 100 is preferably used at concentrations of about 1-5 mM with about 1-3 mM thiosubstrate.
The Ca^2+ can be provided by the addition of CaCl2 to the diluent, preferably at concentrations greater than 1 mM, and more preferably at a concentration of about 10 mM.
The effectiveness of a phospholipase A2 enzyme inhibitor can be measured by adding the inhibitor to the substrate solution prior to the incubation with enzyme. […] Therefore, approximately 10 μl inhibitor dissolved in DMSO can be added to 200 μl substrate solution prior to the addition of enzyme to test the effectiveness of the inhibitor against cPLA. […] Thus, appropriate blanks should be run under each condition tested.

Molecule: O=C(O)c1cc(SSc2ccc([N+](=O)[O-])c(C(=O)O)c2)ccc1[N+](=O)[O-] [DTNB, 5,5'-dithiobis(2-nitrobenzoic acid)]
- enzymatic activity of cPLA in the presence of thiol-sensitive reagent [1]: enzymatic activity was lost

Molecule: CCCCC/C=C\C/C=C\C/C=C\C/C=C\CCCC(=O)S[C@H](COCCCCCCCCCCCCCCCC)COP(=O)([O-])OCC[N+](C)(C)C [thioPC, 1-hexadecyl-2-arachidonoylthio-2-deoxy-sn-glycero-3-phosphorylcholine]
- enzyme activity as a function of time: more linear phase ([2]; 2 mM ThioPC, 4 mM Triton X-100, 30% glycerol, pH 7.4, 37° C., FIG. 3): 5 to 60 min
- enzyme activity as a function of time: burst phase ([2]; 2 mM ThioPC, 4 mM Triton X-100, 30% glycerol, pH 7.4, 37° C., FIG. 3, short burst of activity): 5 min

Molecule: Triton X-100
- effect of Triton X-100 on stability of cPLA activity ([3]; Triton X-100 at about 1-5 mM with about 1-3 mM thiosubstrate): more stable

Molecule: C[S+](C)[O-] [DMSO]
- effect of DMSO on enzyme activity ([3]; DMSO:enzyme/substrate ratio of about 1:20): unaffected

Molecule: OCC(O)CO [glycerol]
- effect of glycerol on enzyme activity ([3]; about 70% glycerol, diluent too viscous): enzyme activity is increased
- effect of glycerol on enzyme activity ([3]; glycerol as component of substrate diluent): Enzyme activity increases

B1: cPLA: 85 kDa arachidonic acid specific enzyme; purified, recombinant human (protein, UniProt P47712 1-749, looked up)
Cytosolic phospholipase A2: MSFIDPYQHIIVEHQYSHKFTVVVLRATKVTKGAFGDMLDTPDPYVELFISTTPDSRKRTRHFNNDINPVWNETFEFILDPNQENVLEITLMDANYVMDETLGTATFTVSSMKVGEKKEVPFIFNQVTEMVLEMSLEVCSCPDLRFSMALCDQEKTFRQQRKEHIRESMKKLLGPKNSEGLHSARDVPVVAILGSGGGFRAMVGFSGVMKALYESGILDCATYVAGLSGSTWYMSTLYSHPDFPEKGPEEINEELMKNVSHNPLLLLTPQKVKRYVESLWKKKSSGQPVTFTDIFGMLIGETLIHNRMNTTLSSLKEKVNTAQCPLPLFTCLHVKPDVSELMFADWVEFSPYEIGMAKYGTFMAPDLFGSKFFMGTVVKKYEENPLHFLMGVWGSAFSILFNRVLGVSGSQSRGSTMEEELENITTKHIVSNDSSDSDDESHEPKGTENEDAGSDYQSDNQASWIHRMIMALVSDSALFNTREGRAGKVHNFMLGLNLNTSYPLSPLSDFATQDSFDDDELDAAVADPDEFERIYEPLDVKSKKIHVVDSGLTFNLPYPLILRPQRGVDLIISFDFSARPSDSSPPFKELLLAEKWAKMNKLPFPKIDPYVFDREGLKECYVFKPKNPDMEKDCPTIIHFVLANINFRKYRAPGVPRETEEEKEIADFDIFDDPESPFSTFNFQYPNQAFKRLHDLMHFNTLNNIDVIKEAMVESIEYRRQNPSRCSVSLSNVEARRFFNKEFLSKPKA
- range of enzyme amount with linear activity ([2]; FIG. 2, thiosubstrate assay, listed as cytosolic phospholipase A2): 0.05 to 1.0 µg
